Experiments:
mice = assay: In vivo delivery of FLuc-mRNA lipid nanoparticle preparations in mice (IVIS imaging); parameters: In vivo IVIS / In vivo IVIS (liver) / In vivo IVIS (spleen): unit not given here; conditions: for In vivo IVIS: Table 4
Description: 7. In Vivo Delivery of the Nucleic Acid Lipid Nanoparticle Preparations in Mice After the preparation was completed, the preparation was injected intramuscularly (mice rectus femoris muscle of the thigh) or intravenously (mice tail vein), with approximately 75 μL per mouse, for a total of 3 mice. After a certain time of injection, in vivo imaging (PerkinElmer, IVIS Lumina III) was performed. 10-15 minutes before imaging, 200 μL of 15 mg/mL D-Luciferin working solution was injected intraperitoneally, and the imaging analysis was performed using an in vivo imager.

[1] = Particle size and PDI by dynamic light scattering; format: physicochemical; conditions: Table 4
Description: The 7.5 μL nucleic acid lipid nanoparticle solution (containing approximately 0.04 mg/mL mRNA) was taken and added with 200 μL ultrapure water, mixed by gentle blowing using a pipette tip, and the particle size of the nanopreparation was detected by dynamic lightscattering (DLS) using a Malvern Dynamic Light Scattering Instrument (Malvern Instruments Ltd., ZEN3700, UK). 27.5 μL nucleic acid lipid nanoparticle solution (containing about 0.04 mg/mL mRNA) was taken and added with 200 μL ultrapure water. A pipette tip was used to gently blow the sample and mix well. The particle size of the nanopreparation was detected by Malvern Dynamic Light Scattering Instrument (Malvern Instruments Ltd., ZEN3700, UK). After the detection, the sample was recovered to an EP tube, and 600 μL of ultrapure water was added, gently blown with a pipette tip, and the potential of the nanopreparation was measured by a Malvern particle size meter.

[2] = molar ratio 1.40:11.15:38.95:48.50, N/P 32, IV formulation
[3] = molar ratio 2.00:4.00:59.00:35.00, N/P 35, IM formulation
[4] = molar ratio 1.40:11.15:38.95:48.50, N/P 28, IM formulation
[5] = molar ratio 2.50:11.50:51.00:35.00, N/P 32, IV formulation
[6] = molar ratio 1.40:11.15:38.95:48.50, N/P 40, IM formulation
[7] = molar ratio 1.50:16.00:34.00:48.50, N/P 55, IV formulation

Structure (SMILES)	PDI [1]	Particle size (nm) [1]	In vivo IVIS (mice; IM)	In vivo IVIS (mice; IV)	other results
CCCCCCC(CCCCCC)C(=O)OCCCCCCOC(=O)C(O)CN(CCCN1CCN(CCCN(CC(O)C(=O)OCCCCCCOC(=O)C(CCCCCC)CCCCCC)CC(O)C(=O)OCCCCCCOC(=O)C(CCCCCC)CCCCCC)CC1)CC(O)C(=O)OCCCCCCOC(=O)C(CCCCCC)CCCCCC (centres unmarked) [Compound L0227]			3.49 × 10^8	2.49 × 10^8	PDI [1, 2]: 0.15 ± 0.01; Particle size (nm) [1, 2]: 113.50 ± 0.96 nm; PDI [1, 3]: 0.13 ± 0.01; Particle size (nm) [1, 3]: 112.03 ± 0.65 nm
CCCCCCCCCCCCCCOC(=O)C(O)CN(CCCN1CCN(CCCN(CC(O)C(=O)OCCCCCCCCCCCCCC)CC(O)C(=O)OCCCCCCCCCCCCCC)CC1)CC(O)C(=O)OCCCCCCCCCCCCCC (centres unmarked) [Compound L0228]			8.22 × 10^6	9.28 × 10^9	PDI [1, 4]: 0.18 ± 0.01; Particle size (nm) [1, 4]: 140.50 ± 1.21 nm; PDI [1, 5]: 0.13 ± 0.01; Particle size (nm) [1, 5]: 120.07 ± 0.60 nm
CCCCCCCCCCCCOC(=O)CCN(CCC(=O)OCCCCCCCCCCCC)CCN(CCC(=O)OCCCCCCCCCCCC)CCN1CCN(CCN(CCC(=O)OCCCCCCCCCCCC)CCC(=O)OCCCCCCCCCCCC)CC1 [L0199-Control, reference compound]			5.84 × 10^6	2.12 × 10^7	delivery efficiency, times lower than the hydroxy compound (L0191 or L0199) (mice; IM administration): slightly lower; delivery efficiency, times lower than the hydroxy compound (L0191 or L0199) (mice; IV administration): about 44 times; PDI [1, 6]: 0.17 ± 0.02; Particle size (nm) [1, 6]: 133.43 ± 1.86 nm; PDI [1, 7]: 0.16 ± 0.03; Particle size (nm) [1, 7]: 144.33 ± 0.31 nm

Further lines, with some results ahead:

PDI [1]	Particle size (nm) [1]	Structure (SMILES)	In vivo IVIS (mice; IM)	In vivo IVIS (mice; IV)	other results
0.10 ± 0.01	117.87 ± 1.55 nm	CC/C=C\CCOCOCCCCCCOC(=O)C(O)CN(CCCN1CCN(CCCN(CC(O)C(=O)OCCCCCCOCOCC/C=C\CC)CC(O)C(=O)OCCCCCCOCOCC/C=C\CC)CC1)CC(O)C(=O)OCCCCCCOCOCC/C=C\CC (centres unmarked) [Compound L0225]	3.13 × 10^8	2.15 × 10^9	
0.09 ± 0.03	115.53 ± 1.04 nm	CCCC/C=C\CCOCOCCCCOC(=O)C(O)CN(CCCN1CCN(CCCN(CC(O)C(=O)OCCCCOCOCC/C=C\CCCC)CC(O)C(=O)OCCCCOCOCC/C=C\CCCC)CC1)CC(O)C(=O)OCCCCOCOCC/C=C\CCCC (centres unmarked) [Compound L0226]	1.41 × 10^8	1.24 × 10^9	
0.10 ± 0.02	179.07 ± 0.38 nm	CCCCCCCC/C=C\CCCCCCCCNC(=O)C(O)CN(CCCN1CCN(CCCN(CC(O)C(=O)NCCCCCCCC/C=C\CCCCCCCC)CC(O)C(=O)NCCCCCCCC/C=C\CCCCCCCC)CC1)CC(O)C(=O)NCCCCCCCC/C=C\CCCCCCCC (centres unmarked) [Compound L0229]	5.61 × 10^6	2.46 × 10^8	
